# From patent US20140235630A1, “COMPOSITIONS AND METHODS FOR THE TREATMENT OF PROLIFERATIVE DISEASES” (Beth Israel Deaconess Medical Center, Inc., priority 2011, published 2014)
# Key:
# [1] = test system: mouse lung tumors with transgenic H1047R mutant of PIK3CA; settings: within two days; cited from earlier work
# [2] = test system: blood vessels in tumors; settings: in vivo; cited from earlier work
# [3] = test system: HCC1937 cells; experiment: DNA damage response immunoblots with or without ionizing radiation (10 Gy); format: cell-based, human
# Protocol: FIG. 5A are immunoblots showing the effects of Compound A, ATM inhibitor KU-55933, and their combination on the DNA damage response. HCC1937 were treated for 18 hours with Compound A at 2.5 μM, KU55933 at 10 μM, or their combination, subjected to ionizing irradiation with 10 Gy or mock, lysed 6 hours later, and subjected to immunoblotting. […] Immunoblots were performed using the Nupage System (Invitrogen). The protein concentration was determined using Bradford reagent (Biorad). A total of 20 μg of protein were loaded, except for PAR, Phospho ATM and Phospho DNA-PK/PRKDC western blots, where 40 μg were loaded. Tumor tissue lysates were prepared similarly with the exception of tissue homogenization by using an electric homogenizer for 30 secs after addition of the lysis buffer. Primary antibodies used for western blotting were total AKT (9272), Cleaved […] 3 (9661), total ERK (4695), Phospho AKT Ser473 (4058), Phospho ERK Thr202/Tyr204 (9106), Phospho-Histone H2AX Ser139 (2577), PTEN (9559) from Cell Signaling. Phospho ATM […] (2152-1), Phospho DNA-PK/PRKDC […] (3892-1) from Epitomics, Inc. CD31 (ab28364), Actin (ab6276), INPP4B (ab81269) from Abcam; pADPr (sc56198) from Santacruz Biotechnology; and Ki-67 (RM-9106) was purchased from Thermo Scientific.
Structure (SMILES),FDG-PET signal [1],sprouting of new blood vessels in tumors [2],"H2AX phosphorylation in response to ionizing radiation ([3]; 18 hours pre-treatment, 10 Gy, lysed 6 hours later)","auto-phosphorylation of ATM ([3]; KU-55933 10 μM, 18 hours)"
Cn1c(=O)n(-c2ccc(C(C)(C)C#N)cc2)c2c3cc(-c4cnc5ccccc5c4)ccc3ncc21 [BEZ235],caused a reduction in the FDG-PET signal,inhibits the sprouting of new blood vessels,,
"O=c1cc(-c2cccc3c2Sc2ccccc2S3)oc(N2CCOCC2)c1 [KU-55933, reference compound]",,,prevented the increase,decrease
